Experiments:
Assay in all cases: Inhibition of ALDH isoenzymes (NAD(P)H formation at 340 nm, purified recombinant enzyme);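 on ALDH2 % Control at 20 μM: run at 25 °C, started by adding substrate after 2 min preincubation, with 100-200 nM ALDH2, 200 µM NAD+, 100 µM propionaldehyde, 1% DMSO in BES buffer pH 7.5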
Assay type in all cases: biochemical
ALDH1A2 = target: T1, ALDH1A2 (Homo sapiens, UniProt O94788); settings: for remaining activity at 20 µM: compound at 20 μM, read-out: ALDH1A2 % Control at 20 μM; for IC50: 100-200 nM enzyme, 200 μM NAD+, 100 μM propionaldehyde, pH 7.5, 25° C.
T1 sequence (O94788 1-518): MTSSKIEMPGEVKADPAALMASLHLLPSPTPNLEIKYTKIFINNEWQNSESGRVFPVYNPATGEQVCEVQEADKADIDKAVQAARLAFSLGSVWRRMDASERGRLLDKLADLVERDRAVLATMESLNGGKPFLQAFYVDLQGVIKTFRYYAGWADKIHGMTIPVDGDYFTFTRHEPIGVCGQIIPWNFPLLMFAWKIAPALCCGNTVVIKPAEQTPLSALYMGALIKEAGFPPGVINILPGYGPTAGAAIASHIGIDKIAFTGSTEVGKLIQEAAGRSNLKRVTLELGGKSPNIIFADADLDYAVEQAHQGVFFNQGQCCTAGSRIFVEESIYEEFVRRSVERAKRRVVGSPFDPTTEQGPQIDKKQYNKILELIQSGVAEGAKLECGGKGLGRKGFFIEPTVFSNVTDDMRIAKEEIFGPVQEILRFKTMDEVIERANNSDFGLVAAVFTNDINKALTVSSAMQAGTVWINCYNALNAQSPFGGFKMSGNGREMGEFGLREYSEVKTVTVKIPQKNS

ALDH1A3 = target: T2, ALDH1A3 (Homo sapiens, UniProt P47895); settings: for remaining activity at 20 µM: compound at 20 μM, read-out: ALDH1A3 % Control at 20 μM; for IC50: 100-200 nM enzyme, 200 μM NAD+, 100 μM propionaldehyde, pH 7.5, 25° C.
T2 sequence (P47895 1-512): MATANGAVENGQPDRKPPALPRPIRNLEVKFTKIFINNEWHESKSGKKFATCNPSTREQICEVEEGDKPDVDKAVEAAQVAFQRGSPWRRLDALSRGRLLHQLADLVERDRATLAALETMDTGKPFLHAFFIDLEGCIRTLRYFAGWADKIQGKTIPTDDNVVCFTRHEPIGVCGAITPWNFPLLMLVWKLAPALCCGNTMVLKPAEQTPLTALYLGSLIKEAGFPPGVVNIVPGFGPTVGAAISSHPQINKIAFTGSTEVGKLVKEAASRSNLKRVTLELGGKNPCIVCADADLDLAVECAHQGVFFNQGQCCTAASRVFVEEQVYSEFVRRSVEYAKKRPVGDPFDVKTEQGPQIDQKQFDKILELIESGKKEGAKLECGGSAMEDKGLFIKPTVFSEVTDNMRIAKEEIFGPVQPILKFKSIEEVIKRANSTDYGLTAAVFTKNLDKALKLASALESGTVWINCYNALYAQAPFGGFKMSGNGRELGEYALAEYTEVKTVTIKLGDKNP

ALDH1A1 = target: T3, ALDH1A1 (Homo sapiens, UniProt P00352); settings: for remaining activity at 20 µM: compound at 20 μM, read-out: ALDH1A1 % Control at 20 μM; for IC50: 100-200 nM enzyme, 200 μM NAD+, 100 μM propionaldehyde, pH 7.5, 25° C.
T3 sequence (P00352 1-501): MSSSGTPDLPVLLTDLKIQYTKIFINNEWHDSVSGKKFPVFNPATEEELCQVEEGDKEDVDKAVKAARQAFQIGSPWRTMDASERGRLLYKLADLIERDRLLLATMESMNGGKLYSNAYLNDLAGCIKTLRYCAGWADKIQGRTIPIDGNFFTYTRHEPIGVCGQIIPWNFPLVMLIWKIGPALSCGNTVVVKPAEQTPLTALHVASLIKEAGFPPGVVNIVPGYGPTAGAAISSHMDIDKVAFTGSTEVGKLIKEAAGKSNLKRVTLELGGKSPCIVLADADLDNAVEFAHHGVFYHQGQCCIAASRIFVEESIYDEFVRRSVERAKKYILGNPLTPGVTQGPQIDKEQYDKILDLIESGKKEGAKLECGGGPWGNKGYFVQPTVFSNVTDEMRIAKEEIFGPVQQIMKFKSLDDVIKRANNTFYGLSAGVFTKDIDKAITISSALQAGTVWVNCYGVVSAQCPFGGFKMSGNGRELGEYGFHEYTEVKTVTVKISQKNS

ALDH2 = target: T4, ALDH2 (Homo sapiens, UniProt P05091); settings: compound at 20 μM; read-out: ALDH2 % Control at 20 μM;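 further: run at 25 °C, started by adding substrate after 2 min preincubation, with 100-200 nM ALDH2, 200 µM NAD+, 100 µM propionaldehyde, 1% DMSO in BES buffer pH 7.5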
T4 sequence (P05091 18-517): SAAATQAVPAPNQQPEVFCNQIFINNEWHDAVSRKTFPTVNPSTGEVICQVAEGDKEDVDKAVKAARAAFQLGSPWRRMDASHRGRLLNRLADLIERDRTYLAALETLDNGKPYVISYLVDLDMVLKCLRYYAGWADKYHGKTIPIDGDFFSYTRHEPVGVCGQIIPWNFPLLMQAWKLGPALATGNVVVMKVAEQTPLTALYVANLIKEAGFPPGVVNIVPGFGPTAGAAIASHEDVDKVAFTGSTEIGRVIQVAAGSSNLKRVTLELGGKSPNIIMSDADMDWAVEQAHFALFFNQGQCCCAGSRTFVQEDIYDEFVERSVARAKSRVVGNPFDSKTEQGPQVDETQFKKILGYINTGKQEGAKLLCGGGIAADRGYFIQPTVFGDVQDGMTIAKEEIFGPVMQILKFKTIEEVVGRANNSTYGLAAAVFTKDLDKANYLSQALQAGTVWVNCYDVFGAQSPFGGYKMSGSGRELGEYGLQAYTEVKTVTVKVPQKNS

remaining activity at 20 µM (ALDH1A2) [%] | remaining activity at 20 µM (ALDH1A3) [%] | remaining activity at 20 µM (ALDH1A1) [%] | remaining activity at 20 µM (ALDH2) [%] | IC50 (ALDH1A2) [nM] | IC50 (ALDH1A3) [nM] | IC50 (ALDH1A1) [nM] | SMILES
25 | 14 | 16 | 94 | – | – | – | Cn1ncc2c(=O)n(-c3ccccc3)c(SC3CCCCC3=O)nc21 (centres unmarked) [Example 76, 1-methyl-6-((2-oxocyclohexyl)thio)-5-phenyl-1H-pyrazolo[3,4-d]pyrimidin-4(5H)-one]
– | – | – | – | 4700 | > 20000 | – | Cc1ccccc1-n1c(SCc2cccc(F)c2)nc2[nH]ncc2c1=O [Example 1, 6-((3-fluorobenzyl)thio)-5-(o-tolyl)-1H-pyrazolo[3,4-d]pyrimidin-4(5H)-one]
77 | 74 | 28 | 98 | – | – | – | Cn1ncc2c(=O)n(-c3ccccc3)c(CNCc3cccc(F)c3)nc21 [Example 26, 6-(((3-fluorobenzyl)amino)methyl)-1-methyl-5-phenyl-1H-pyrazolo[3,4-d]pyrimidin-4(5H)-one]
37 | 95 | 46 | 117 | – | – | – | Cn1ncc2c(=O)n(C3CCCC3)c(SCc3cccc(F)c3)nc21 [Example 45, 5-cyclopentyl-6-((3-fluorobenzyl)thio)-1-methyl-1H-pyrazolo[3,4-d]pyrimidin-4(5H)-one]
72 | 66 | – | 95 | – | – | 1200 | Cc1ccccc1-n1c(OCc2cccc(F)c2)nc2c(cnn2C)c1=O [Example 24, 6-((3-fluorobenzyl)oxy)-1-methyl-5-(o-tolyl)-1H-pyrazolo[3,4-d]pyrimidin-4(5H)-one]
46 | 64 | 23 | 95 | – | – | – | Cn1ncc2c(=O)n(-c3ccccc3)c(SC3CCCC3=O)nc21 (centres unmarked) [Example 75, 1-methyl-6-((2-oxocyclopentyl)thio)-5-phenyl-1H-pyrazolo[3,4-d]pyrimidin-4(5H)-one]
0 | 1 | 3 | 95 | – | – | – | CC(Sc1nc2c(cnn2C2COC2)c(=O)n1-c1ccccc1)c1ccccc1 (centres unmarked) [Example 73, 1-(oxetan-3-yl)-5-phenyl-6-((1-phenylethyl)thio)-1H-pyrazolo[3,4-d]pyrimidin-4(5H)-one]
– | – | – | 91 | 139 | 203 | 387 | Cn1ncc2c(=O)n(-c3ccccc3)c(SCc3ccccc3)nc21 [Example 55, 6-(benzylthio)-1-methyl-5-phenyl-1H-pyrazolo[3,4-d]pyrimidin-4(5H)-one]
– | – | – | 91 | 130 | 95 | 547 | Cn1ncc2c(=O)n(-c3ccccc3)c(SCC(=O)c3ccccc3)nc21 [Example 52, 1-methyl-6-((2-oxo-2-phenylethyl)thio)-5-phenyl-1H-pyrazolo[3,4-d]pyrimidin-4(5H)-one]
-8 | -10 | -4 | 94 | – | – | – | CC(Sc1nc2c(cnn2C)c(=O)n1-c1ccccc1)c1cccc(F)c1 (centres unmarked) [Example 71, 6-((1-(3-fluorophenyl)ethyl)thio)-1-methyl-5-phenyl-1H-pyrazolo[3,4-d]pyrimidin-4(5H)-one]
96 | 90 | 61 | 96 | – | – | – | Cc1ccccc1-n1c(NCc2cccc(F)c2)nc2[nH]ncc2c1=O [Example 22, 6-((3-fluorobenzyl)amino)-5-(o-tolyl)-1H-pyrazolo[3,4-d]pyrimidin-4(5H)-one]
23 | 17 | 22 | 102 | – | – | – | Cn1ncc2c(=O)n(-c3ccccc3)c(SC(C)(C)c3ccccc3)nc21 [Example 77, 1-methyl-5-phenyl-6-((2-phenylpropan-2-yl)thio)-1H-pyrazolo[3,4-d]pyrimidin-4(5H)-one]
65 | 83 | 24 | 101 | – | – | – | Cn1ncc2c(=O)n(-c3ccccc3)c(COc3cccc(F)c3)nc21 [Example 25, 6-((3-fluorophenoxy)methyl)-1-methyl-5-phenyl-1H-pyrazolo[3,4-d]pyrimidin-4(5H)-one]
– | – | – | 93 | 15000 | > 10000 | 350 | CCn1ncc2c(=O)n(-c3ccccc3C)c(SCc3cccc(F)c3)nc21 [Example 5, 1-ethyl-6-((3-fluorobenzyl)thio)-5-(o-tolyl)-1H-pyrazolo[3,4-d]pyrimidin-4(5H)-one]
14 | 73 | 28 | 96 | – | – | – | Cn1ncc2c(=O)n(C3CCC3)c(SCc3cccc(F)c3)nc21 [Example 46, 5-cyclobutyl-6-((3-fluorobenzyl)thio)-1-methyl-1H-pyrazolo[3,4-d]pyrimidin-4(5H)-one]
– | 26 | 24 | 98 | – | – | – | Cn1ncc2c(=O)n(-c3ccccc3)c(CCc3cccc(F)c3)nc21 [Example 48, 6-(3-fluorophenethyl)-1-methyl-5-phenyl-1H-pyrazolo[3,4-d]pyrimidin-4(5H)-one]
– | 9 | – | – | – | – | – | Cn1ncc2c(=O)n(-c3ccccc3F)c(SCc3cccc(F)c3)nc21 [Example 56, 6-((3-fluorobenzyl)thio)-5-(2-fluorophenyl)-1-methyl-1H-pyrazolo[3,4-d]pyrimidin-4(5H)-one]
1 | – | 9 | 92 | – | – | – | CC(Sc1nc2c(cnn2C)c(=O)n1-c1ccccc1)c1ccccn1 (centres unmarked) [Example 79, 1-methyl-5-phenyl-6-((1-(pyridin-2-yl)ethyl)thio)-1H-pyrazolo[3,4-d]pyrimidin-4(5H)-one]
15 | – | 28 | 110 | – | – | – | Cn1ncc2c(=O)n(-c3ccccc3)c(/C=C/c3cccc(F)c3)nc21 [Example 47, (E)-6-(3-fluorostyryl)-1-methyl-5-phenyl-1H-pyrazolo[3,4-d]pyrimidin-4(5H)-one]
7 | 9 | 2 | – | – | – | – | O=c1c2cnn(C3COC3)c2nc(SCc2cccc(F)c2)n1-c1ccccc1 [Example 18, 6-((3-fluorobenzyl)thio)-1-(oxetan-3-yl)-5-phenyl-H-pyrazolo[3,4-d]pyrimidin-4(5H)-one]

From US11944626B2, “Small molecule inhibitors of ALDH and uses thereof” (The Regents of the University of Michigan, priority 2016, dated 2024)
